From patent US12281079B2, “Quinoline derivatives, processes for their preparation and uses thereof for the treatment of cancer” (Lead Discovery Center GmbH, priority 2019, dated 2025)

Key:
[1] = biological target: mitochondrial RNA polymerase (POLRMT) (Mus musculus, UniProt Q8BKF1); experiment: Homogeneous TR-FRET assay for mitochondrial transcription activity; type: biochemical; settings: homogeneous TR-FRET assay according to Example 4
Outline: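 Read-out is TR-FRET (ex 340, em 665 nm) from two adjacent labelled DNA probes annealing to the 407 bp transcript after EDTA/700 mM NaCl stop. Reaction: murine POLRMT, TFAM, TFB2M and LSP plasmid template, compound 10 μM or serial dilution, 10 min rt preincubation, 500 μM each nucleotide, 2 h rt.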

[2] = test system: mitochondrial transcription (7S RNA) in HeLa cells; experiment: Quantitative real time-PCR assay of inhibition of mitochondrial transcription (7S RNA) in HeLa cells; type: cell-based; settings: Homo sapiens, 4 h compound incubation, according to Example 5, read-out: cellular qPCR assay
Outline: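 HeLa cells were exposed to compound dilution series or DMSO for 4 h, then RNA was extracted, normalized and reverse-transcribed. TaqMan qRT-PCR measured short-lived 7S RNA, with POLRMT as nuclear-transcription readout and TBP as housekeeping gene. Biological triplicates were analyzed by ΔΔCt and reported as Rq % (2−ΔΔCt).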

Sequence of mitochondrial RNA polymerase (POLRMT) (Q8BKF1 42-1207): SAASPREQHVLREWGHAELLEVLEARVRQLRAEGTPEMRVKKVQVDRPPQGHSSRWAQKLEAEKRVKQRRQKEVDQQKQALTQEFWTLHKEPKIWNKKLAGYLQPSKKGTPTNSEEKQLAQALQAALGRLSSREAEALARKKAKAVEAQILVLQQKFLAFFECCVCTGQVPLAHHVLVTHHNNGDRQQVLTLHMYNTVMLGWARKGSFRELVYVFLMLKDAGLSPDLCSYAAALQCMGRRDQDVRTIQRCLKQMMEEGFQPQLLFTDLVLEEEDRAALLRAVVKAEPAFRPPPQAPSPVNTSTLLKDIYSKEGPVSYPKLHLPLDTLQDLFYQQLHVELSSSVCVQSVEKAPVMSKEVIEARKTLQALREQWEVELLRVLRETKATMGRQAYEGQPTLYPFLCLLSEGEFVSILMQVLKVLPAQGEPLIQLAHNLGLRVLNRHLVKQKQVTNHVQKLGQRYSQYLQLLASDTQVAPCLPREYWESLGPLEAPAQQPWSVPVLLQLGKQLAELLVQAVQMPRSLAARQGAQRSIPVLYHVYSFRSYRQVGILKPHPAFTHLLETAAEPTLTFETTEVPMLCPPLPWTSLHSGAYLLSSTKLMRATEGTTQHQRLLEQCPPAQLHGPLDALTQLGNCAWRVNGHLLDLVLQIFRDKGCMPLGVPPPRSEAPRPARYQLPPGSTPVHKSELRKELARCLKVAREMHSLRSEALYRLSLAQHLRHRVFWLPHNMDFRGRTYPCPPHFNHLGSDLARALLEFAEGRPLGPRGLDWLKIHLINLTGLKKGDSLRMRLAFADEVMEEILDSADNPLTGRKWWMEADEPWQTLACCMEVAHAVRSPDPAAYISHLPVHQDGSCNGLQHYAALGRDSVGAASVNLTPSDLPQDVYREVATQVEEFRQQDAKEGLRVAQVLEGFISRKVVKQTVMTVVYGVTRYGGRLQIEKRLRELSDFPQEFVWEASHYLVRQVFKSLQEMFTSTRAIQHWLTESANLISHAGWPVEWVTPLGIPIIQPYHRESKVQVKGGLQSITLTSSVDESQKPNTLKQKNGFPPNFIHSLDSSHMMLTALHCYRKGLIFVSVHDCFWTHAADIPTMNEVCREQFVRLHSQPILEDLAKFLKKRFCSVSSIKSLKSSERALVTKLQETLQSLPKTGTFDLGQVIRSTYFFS

SMILES	IC50 [1] [nM]	IC50 [2] [nM]
C[C@@H](Oc1ccc2c(-c3c(Cl)cc(F)cc3Cl)ccnc2c1)C(=O)N1CCCC[C@@H]1C [Compound 199, (2R)-2-[[4-(2,6-dichloro-4-fluoro-phenyl)-7-quinolyl]oxy]-1-[(2S)-2-methyl-1-piperidyl]propan-1-one]	20 to 100	< 10
C[C@@H](Oc1ccc2c(-c3c(Cl)cc(F)cc3Cl)ccnc2c1)C(=O)N1CCOCC1 [Compound 201, (2R)-2-[[4-(2,6-dichloro-4-fluoro-phenyl)-7-quinolyl]oxy]-1-morpholino-propan-1-one]	100 to 1000	10 to 50
C[C@@H]1CCCCN1C(=O)[C@@H](C)Oc1ccc2c(-c3c(Cl)cc(F)cc3Cl)ccnc2c1 [Compound 204, (2R)-2-[[4-(2,6-dichloro-4-fluoro-phenyl)-7-quinolyl]oxy]-1-[(2R)-2-methyl-1-piperidyl]propan-1-one]	100 to 1000	10 to 50
C[C@@H](Oc1ccc2c(-c3c(Cl)cc(F)cc3Cl)ccnc2c1)C(=O)N1CCC2(CC1)COC2 [Compound 208, (2R)-2-[[4-(2,6-dichloro-4-fluoro-phenyl)-7-quinolyl]oxy]-1-(2-oxa-7-azaspiro[3.5]nonan-7-yl)propan-1-one]	100 to 1000	10 to 50
CC(=O)N(O)[C@H]1CCCN(C(=O)[C@@H](C)Oc2ccc3c(-c4ccc(F)cc4Cl)ccnc3c2)C1 [Compound 209, N-hydroxy-N-[(3S)-1-[(2R)-2-[[4-(2-chloro-4-fluoro-phenyl)-7-quinolyl]oxy]propanoyl]-3-piperidyl]acetamide]	100 to 1000	10 to 50
CC1CCCC(C)N1C(=O)[C@@H](C)Oc1ccc2c(-c3ccc(F)cc3Cl)ccnc2c1 (stereo partly drawn) [Compound 211, (2R)-2-[[4-(2-chloro-4-fluoro-phenyl)-7-quinolyl]oxy]-1-(2,6-dimethyl-1-piperidyl)propan-1-one]	100 to 1000	10 to 50
C[C@@H](Oc1ccc2c(-c3ccc(F)cc3Cl)ccnc2c1)C(=O)N1CC[C@@H](NC(=O)NC(C)(C)C)C1 [Compound 214, 1-tertbutyl-3-[(3R)-1-[(2R)-2-[[4-(2-chloro-4-fluoro-phenyl)-7-quinolyl]oxy]propanoyl]pyrrolidin-3-yl]urea]	100 to 1000	50 to 500
C[C@@H](Oc1ccc2c(-c3ccc(F)cc3Cl)ccnc2c1)C(=O)N1CC(C)(C)NC(C)(C)C1 [Compound 215, (2R)-2-[[4-(2-chloro-4-fluoro-phenyl)-7-quinolyl]oxy]-1-(3,3,5,5-tetramethylpiperazin-1-yl)propan-1-one]	100 to 1000	50 to 500
CC1CN(C(=O)[C@@H](C)Oc2ccc3c(-c4ccc(F)cc4Cl)ccnc3c2)CC(C)N1 (stereo partly drawn) [Compound 216, (2R)-2-[[4-(2-chloro-4-fluoro-phenyl)-7-quinolyl]oxy]-1-(3,5-dimethylpiperazin-1-yl)propan-1-one]	100 to 1000	50 to 500
C[C@@H](Oc1ccc2c(-c3c(Cl)cc(F)cc3Cl)ccnc2n1)C(=O)N1CCC[C@H](CC(=O)O)C1 [Compound 220, 2-[(3R)-1-[(2R)-2-[[5-(2,6-dichloro-4-fluoro-phenyl)-1,8-naphthyridin-2-yl]oxy]propanoyl]-3-piperidyl]acetic acid]	20 to 100	< 10
Cc1cc(F)cc(C)c1-c1ccnc2nc(O[C@H](C)C(=O)N3CCC[C@H](CC(=O)O)C3)ccc12 [Compound 221, 2-[(3R)-1-[(2R)-2-[[5-(4-fluoro-2,6-dimethyl-phenyl)-1,8-naphthyridin-2-yl]oxy]propanoyl]-3-piperidyl]acetic acid]	< 20	< 10

Now from value to compound:

IC50 [1] [nM]	IC50 [2] [nM]	SMILES
20 to 100	10 to 50	C[C@@H](Oc1ccc2c(-c3ccc(F)cc3Cl)ccnc2c1)C(=O)N1CCCC(C(C)(C)C(=O)O)C1 (stereo partly drawn) [Compound 197, 2-methyl-2-[1-[rac-(2R)-2-[[4-(2-chloro-4-fluoro-phenyl)-7-quinolyl]oxy]propanoyl]-3-piperidyl]propanoic acid]
20 to 100	< 10	C[C@@H](Oc1ccc2c(-c3ccc(F)cc3Cl)ccnc2c1)C(=O)N1CCC[C@@](C)(C(=O)O)C1 [Compound 198, (3R)-1-[(2R)-2-[[4-(2-chloro-4-fluoro-phenyl)-7-quinolyl]oxy]propanoyl]-3-methyl-piperidine-3-carboxylic acid]
100 to 1000	10 to 50	C[C@@H](Oc1ccc2c(-c3c(Cl)cc(F)cc3Cl)ccnc2c1)C(=O)N1CCC2(CCNC2=O)CC1 [Compound 202, 8-[(2R)-2-[[4-(2,6-dichloro-4-fluoro-phenyl)-7-quinolyl]oxy]propanoyl]-2,8-diazaspiro[4.5]decan-1-one]
100 to 1000	10 to 50	C[C@@H](Oc1ccc2c(-c3ccc(F)cc3Cl)ccnc2c1)C(=O)N1CCC2(CCNC2=O)CC1 [Compound 205, 8-[(2R)-2-[[4-(2-chloro-4-fluoro-phenyl)-7-quinolyl]oxy]propanoyl]-2,8-diazaspiro[4.5]decan-1-one]
100 to 1000	10 to 50	C[C@@H](Oc1ccc2c(-c3ccc(F)cc3Cl)ccnc2c1)C(=O)N1CCOCC1 [Compound 206, (2R)-2-[[4-(2-chloro-4-fluoro-phenyl)-7-quinolyl]oxy]-1-morpholino-propan-1-one]
100 to 1000	< 10	C[C@@H](Oc1ccc2c(-c3ccc(F)cc3Cl)ccnc2c1)C(=O)N1CCCC(C2(O)CC2)C1 (stereo partly drawn) [Compound 207, (2R)-2-[[4-(2-chloro-4-fluoro-phenyl)-7-quinolyl]oxy]-1-[3-(1-hydroxycyclopropyl)-1-piperidyl]propan-1-one]
100 to 1000	10 to 50	C[C@@H](Oc1ccc2c(-c3ccc(F)cc3Cl)ccnc2c1)C(=O)N1CCC2(CC1)COC2 [Compound 210, (2R)-2-[[4-(2-chloro-4-fluoro-phenyl)-7-quinolyl]oxy]-1-(2-oxa-7-azaspiro[3.5]nonan-7-yl)propan-1-one]
100 to 1000	< 10	C[C@@H](Oc1ccc2c(-c3ccc(F)cc3Cl)ccnc2c1)C(=O)N1CCCC2(COC2)C1 [Compound 212, (2R)-2-[[4-(2-chloro-4-fluoro-phenyl)-7-quinolyl]oxy]-1-(2-oxa-8-azaspiro[3.5]nonan-8-yl)propan-1-one]
100 to 1000	50 to 500	C[C@@H](Oc1ccc2c(-c3ccc(F)cc3Cl)ccnc2c1)C(=O)N1CCC2(COC2)C1 [Compound 213, (2R)-2-[[4-(2-chloro-4-fluoro-phenyl)-7-quinolyl]oxy]-1-(2-oxa-7-azaspiro[3.4]octan-7-yl)propan-1-one]
20 to 100	50 to 500	C[C@@H](Oc1ccc2c(-c3ccc(F)cc3Cl)ccnc2c1)C(=O)N1CCC=C(C(=O)O)C1 [Compound 219, 1-[(2R)-2-[[4-(2-chloro-4-fluoro-phenyl)-7-quinolyl]oxy]propanoyl]-3,6-dihydro-2H-pyridine-5-carboxylic acid]
